# Data reported in patent publication US9695155B2, “Herbicidal substituted pyrimidinyloxy benzene compounds” (E. I. DU PONT DE NEMOURS AND COMPANY, priority 2013, dated 2017).
# Assays:
# rice = assay: Test C flooded paddy test; format: in vivo, Oryza sativa; settings: Flood, scale 0 to 100 (0 no effect, 100 complete control), 13 to 15 days
# In short: (§1)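 Test compounds are applied straight into paddy water held 3 cm above the soil surface, with that flood maintained for the whole test. After 13 to 15 days in the greenhouse, each species is scored visually relative to controls.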
# soybean = assay: Test E preemergence; format: in vivo, Glycine max; settings: for Soybean plant response rating: scale 0 to 100 (0 no effect, 100 complete control); for Plant response rating, Soybean: scale 0 to 100, 0 no effect, 100 complete control
# In short: (§2)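 Compound in a non-phytotoxic solvent mixture with surfactant was applied preemergence to seeds in silt loam soil, or postemergence to plants 2 to 18 cm tall grown in peat-based potting medium. Plants were kept in a greenhouse for 14 to 21 days, then rated visually against untreated controls on a 0 (no effect) to 100 (complete control) scale.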
# palmer pigweed = assay: Test E preemergence; format: in vivo, Amaranthus palmeri; settings: for Pigweed, Palmer plant response rating: scale 0 to 100 (0 no effect, 100 complete control); for Plant response rating, Pigweed, Palmer: scale 0 to 100, 0 no effect, 100 complete control
# In short: as §2
# ducksalad = assay: Test C flooded paddy test; format: in vivo, Heteranthera limosa; settings: Flood, scale 0 to 100 (0 no effect, 100 complete control), 13 to 15 days
# In short: as §1
# green foxtail = assay: Test E preemergence; format: in vivo, Setaria viridis; settings: for Foxtail, Green plant response rating: scale 0 to 100 (0 no effect, 100 complete control); for Plant response rating, Foxtail, Green: scale 0 to 100, 0 no effect, 100 complete control
# In short: as §2
# ragweed = assay: Test E preemergence; format: in vivo, Ambrosia elatior; settings: for Ragweed plant response rating: scale 0 to 100 (0 no effect, 100 complete control); for Plant response rating, Ragweed: scale 0 to 100, 0 no effect, 100 complete control
# In short: as §2
# dayflower = assay: Test E preemergence; format: in vivo, Commelina virginica; settings: for Dayflower, VA plant response rating: scale 0 to 100 (0 no effect, 100 complete control); for Plant response rating, Dayflower, VA: scale 0 to 100, 0 no effect, 100 complete control
# In short: as §2
# wild poinsettia = assay: Test E preemergence; format: in vivo, Euphorbia heterophylla; settings: for Poinsettia, Wild plant response rating: scale 0 to 100 (0 no effect, 100 complete control); for Plant response rating, Poinsettia, Wild: scale 0 to 100, 0 no effect, 100 complete control
# In short: as §2
# yellow nutsedge = assay: Test E preemergence; format: in vivo, Cyperus esculentus; settings: for Nutsedge, Yellow plant response rating: scale 0 to 100 (0 no effect, 100 complete control); for Plant response rating, Nutsedge, Yellow: scale 0 to 100, 0 no effect, 100 complete control
# In short: as §2
# sandbur = assay: Test E preemergence; format: in vivo, Cenchrus echinatus; settings: for Sandbur plant response rating: scale 0 to 100 (0 no effect, 100 complete control); for Plant response rating, Sandbur: scale 0 to 100, 0 no effect, 100 complete control
# In short: as §2
# fall panicum = assay: Test E preemergence; format: in vivo, Panicum dichotomiflorum; settings: for Panicum, Fall plant response rating: scale 0 to 100 (0 no effect, 100 complete control); for Plant response rating, Panicum, Fall: scale 0 to 100, 0 no effect, 100 complete control
# In short: as §2
compound,measurement,setting,value
FC(F)(F)c1cnn(-c2c(Cl)cccc2Oc2ncc(Cl)cn2)c1 [Compound 167],"Plant response rating, Rice",rice; 31 g ai/ha,0
same,"Plant response rating, Rice",rice; 62 g ai/ha,0
same,"Plant response rating, Rice",rice; 125 g ai/ha,0
same,"Plant response rating, Rice",rice; 250 g ai/ha,0
same,Soybean plant response rating,soybean; 31 g ai/ha,0
same,Soybean plant response rating,soybean; 62 g ai/ha,20
same,"Plant response rating, Soybean",soybean; 125 g ai/ha,50
same,"Pigweed, Palmer plant response rating",palmer pigweed; 31 g ai/ha,0
same,"Pigweed, Palmer plant response rating",palmer pigweed; 62 g ai/ha,98
same,"Plant response rating, Pigweed, Palmer",palmer pigweed; 125 g ai/ha,100
same,"Plant response rating, Ducksalad",ducksalad; 31 g ai/ha,0
same,"Plant response rating, Ducksalad",ducksalad; 62 g ai/ha,50
same,"Plant response rating, Ducksalad",ducksalad; 125 g ai/ha,60
same,"Plant response rating, Ducksalad",ducksalad; 250 g ai/ha,80
same,"Foxtail, Green plant response rating",green foxtail; 16 g ai/ha,10
same,"Foxtail, Green plant response rating",green foxtail; 31 g ai/ha,35
same,"Foxtail, Green plant response rating",green foxtail; 62 g ai/ha,70
same,"Plant response rating, Foxtail, Green",green foxtail; 125 g ai/ha,90
same,Ragweed plant response rating,ragweed; 31 g ai/ha,15
same,Ragweed plant response rating,ragweed; 62 g ai/ha,35
same,"Plant response rating, Ragweed",ragweed; 125 g ai/ha,35
same,"Dayflower, VA plant response rating",dayflower; 16 g ai/ha,0
same,"Dayflower, VA plant response rating",dayflower; 31 g ai/ha,5
same,"Dayflower, VA plant response rating",dayflower; 62 g ai/ha,65
same,"Plant response rating, Dayflower, VA",dayflower; 125 g ai/ha,100
same,"Poinsettia, Wild plant response rating",wild poinsettia; 31 g ai/ha,0
same,"Poinsettia, Wild plant response rating",wild poinsettia; 62 g ai/ha,20
same,"Plant response rating, Poinsettia, Wild",wild poinsettia; 125 g ai/ha,25
same,"Nutsedge, Yellow plant response rating",yellow nutsedge; 31 g ai/ha,0
same,"Nutsedge, Yellow plant response rating",yellow nutsedge; 62 g ai/ha,0
same,"Plant response rating, Nutsedge, Yellow",yellow nutsedge; 125 g ai/ha,0
same,Sandbur plant response rating,sandbur; 31 g ai/ha,0
same,Sandbur plant response rating,sandbur; 62 g ai/ha,20
same,"Plant response rating, Sandbur",sandbur; 125 g ai/ha,65
same,"Panicum, Fall plant response rating",fall panicum; 31 g ai/ha,65
same,"Panicum, Fall plant response rating",fall panicum; 62 g ai/ha,100
same,"Plant response rating, Panicum, Fall",fall panicum; 125 g ai/ha,100
"N#Cc1cccc(Oc2ncc(Br)cn2)c1-n1cc(C(F)(F)F)cn1 [Compound 59, 3-[(5-bromo-2-pyrimidinyl)oxy]-2-[4-(trifluoromethyl)-1H-pyrazol-1-yl]benzonitrile]","Plant response rating, Rice",rice; 31 g ai/ha,0
same,"Plant response rating, Rice",rice; 62 g ai/ha,15
same,"Plant response rating, Rice",rice; 125 g ai/ha,20
same,"Plant response rating, Rice",rice; 250 g ai/ha,20
same,Soybean plant response rating,soybean; 16 g ai/ha,0
same,Soybean plant response rating,soybean; 31 g ai/ha,0
same,"Plant response rating, Soybean",soybean; 125 g ai/ha,50
same,"Plant response rating, Soybean",soybean; 250 g ai/ha,95
same,"Pigweed, Palmer plant response rating",palmer pigweed; 16 g ai/ha,35
same,"Pigweed, Palmer plant response rating",palmer pigweed; 31 g ai/ha,100
same,"Pigweed, Palmer plant response rating",palmer pigweed; 62 g ai/ha,100
same,"Plant response rating, Pigweed, Palmer",palmer pigweed; 125 g ai/ha,100
same,"Plant response rating, Pigweed, Palmer",palmer pigweed; 250 g ai/ha,100
same,"Plant response rating, Ducksalad",ducksalad; 31 g ai/ha,50
same,"Plant response rating, Ducksalad",ducksalad; 62 g ai/ha,75
same,"Plant response rating, Ducksalad",ducksalad; 125 g ai/ha,95
same,"Plant response rating, Ducksalad",ducksalad; 250 g ai/ha,95
same,"Foxtail, Green plant response rating",green foxtail; 16 g ai/ha,0
same,"Foxtail, Green plant response rating",green foxtail; 31 g ai/ha,60
same,"Foxtail, Green plant response rating",green foxtail; 62 g ai/ha,100
same,"Plant response rating, Foxtail, Green",green foxtail; 125 g ai/ha,100
same,"Plant response rating, Foxtail, Green",green foxtail; 250 g ai/ha,100
same,Ragweed plant response rating,ragweed; 16 g ai/ha,0
same,Ragweed plant response rating,ragweed; 31 g ai/ha,0
same,Ragweed plant response rating,ragweed; 62 g ai/ha,0
same,"Plant response rating, Ragweed",ragweed; 125 g ai/ha,5
same,"Plant response rating, Ragweed",ragweed; 250 g ai/ha,50
same,"Dayflower, VA plant response rating",dayflower; 16 g ai/ha,0
same,"Dayflower, VA plant response rating",dayflower; 31 g ai/ha,5
same,"Dayflower, VA plant response rating",dayflower; 62 g ai/ha,25
same,"Plant response rating, Dayflower, VA",dayflower; 125 g ai/ha,85
same,"Plant response rating, Dayflower, VA",dayflower; 250 g ai/ha,98
same,"Poinsettia, Wild plant response rating",wild poinsettia; 16 g ai/ha,0
same,"Poinsettia, Wild plant response rating",wild poinsettia; 31 g ai/ha,0
same,"Poinsettia, Wild plant response rating",wild poinsettia; 62 g ai/ha,10
same,"Plant response rating, Poinsettia, Wild",wild poinsettia; 125 g ai/ha,20
same,"Plant response rating, Poinsettia, Wild",wild poinsettia; 250 g ai/ha,100
same,"Nutsedge, Yellow plant response rating",yellow nutsedge; 16 g ai/ha,0
same,"Nutsedge, Yellow plant response rating",yellow nutsedge; 31 g ai/ha,0
same,"Nutsedge, Yellow plant response rating",yellow nutsedge; 62 g ai/ha,0
same,"Plant response rating, Nutsedge, Yellow",yellow nutsedge; 125 g ai/ha,30
same,"Plant response rating, Nutsedge, Yellow",yellow nutsedge; 250 g ai/ha,50
same,Sandbur plant response rating,sandbur; 16 g ai/ha,0
same,Sandbur plant response rating,sandbur; 31 g ai/ha,15
same,Sandbur plant response rating,sandbur; 62 g ai/ha,30
same,"Plant response rating, Sandbur",sandbur; 125 g ai/ha,50
same,"Plant response rating, Sandbur",sandbur; 250 g ai/ha,95
same,"Panicum, Fall plant response rating",fall panicum; 16 g ai/ha,50
same,"Panicum, Fall plant response rating",fall panicum; 31 g ai/ha,75
same,"Panicum, Fall plant response rating",fall panicum; 62 g ai/ha,98
same,"Plant response rating, Panicum, Fall",fall panicum; 125 g ai/ha,100
same,"Plant response rating, Panicum, Fall",fall panicum; 250 g ai/ha,100
